{
  "source": "patent US20030191096A1",
  "about": "“Method of hormonal therapy” (priority 2002, published 2003)",
  "tested_on": "male accessory sex glands and tissues in sexually immature castrated male rats",
  "assay": "Oral Hershberger Assay: weights of male accessory sex glands and tissues after ten days of oral gavage",
  "type": "in vivo, rat",
  "conditions": "ten consecutive days",
  "protocol": "Applicants performed a set of experiments to identify the potential for a compound to mimic endogenous sex hormones. An in vivo study was performed using a short-term screening assay to identify changes in weights of male accessory sex glands and tissues in sexually immature castrated male rats. The study preformed is known in the art as an “Oral Hershberger Assay”.\nThis study included forty-two sexually immature castrated male rats that were randomly assigned to seven different groups and assigned formulations of the test article, oxandrolone, positive control article, 17α-methyl testosterone, or the vehicle, aqueous 0.5% methylcellulose. These formulations were administered orally via gavage once daily for ten consecutive days at dosages of 0 (vehicle), 1, 3 and 10 mg/kg/day. The dosage volume was 0.5 mL/kg, adjusted daily for body weight changes and were given at approximately the same time each day.\nApproximately 24 hours after the last dosage administration the rats were euthanized via carbon dioxide asphyxiation. The following tissues were excised trimmed and weighed: liver, paired adrenal glands, paired kidneys, ventral prostate, seminal vesicles together with the coagulating gland, levator ani and bulbocavemous muscles, glands penis and cowper's gland. These tissues were retained in neutral buffered 10% formalin to be used for any possible future evaluation.\nThe following table presents the percent changes from the control group value.",
  "data": [
    {"smiles": "C[C@]12CCC(=O)C=C1CC[C@@H]1[C@@H]2CC[C@@]2(C)[C@H]1CC[C@]2(C)O", "note": "[Meth-Test, 17α-methyl testosterone]", "values": [
      {"measurement": "Cowpers Gland, percent changes from the control group value", "setting": "1 mg/kg/day orally via gavage", "value": 88.7, "unit": "%"},
      {"measurement": "Glands Penis, percent changes from the control group value", "setting": "1 mg/kg/day orally via gavage", "value": 127.9, "unit": "%"},
      {"measurement": "Levator Ani and Bulbocavernous, percent changes from the control group value", "setting": "1 mg/kg/day orally via gavage", "value": 111.0, "unit": "%"},
      {"measurement": "Prostate (Fixed), percent changes from the control group value", "setting": "1 mg/kg/day orally via gavage", "value": 101.9, "unit": "%"},
      {"measurement": "Prostate, percent changes from the control group value", "setting": "1 mg/kg/day orally via gavage", "value": 97.0, "unit": "%"},
      {"measurement": "Seminal Vesicles with Fluid, percent changes from the control group value", "setting": "1 mg/kg/day orally via gavage", "value": 89.6, "unit": "%"},
      {"measurement": "Cowpers Gland, percent changes from the control group value", "setting": "3 mg/kg/day orally via gavage", "value": 179.0, "unit": "%"},
      {"measurement": "Glands Penis, percent changes from the control group value", "setting": "3 mg/kg/day orally via gavage", "value": 102.6, "unit": "%"},
      {"measurement": "Levator Ani and Bulbocavernous, percent changes from the control group value", "setting": "3 mg/kg/day orally via gavage", "value": 114.2, "unit": "%"},
      {"measurement": "Prostate (Fixed), percent changes from the control group value", "setting": "3 mg/kg/day orally via gavage", "value": 119.0, "unit": "%"},
      {"measurement": "Prostate, percent changes from the control group value", "setting": "3 mg/kg/day orally via gavage", "value": 109.1, "unit": "%"},
      {"measurement": "Seminal Vesicles with Fluid, percent changes from the control group value", "setting": "3 mg/kg/day orally via gavage", "value": 118.0, "unit": "%"},
      {"measurement": "Cowpers Gland, percent changes from the control group value", "setting": "10 mg/kg/day orally via gavage", "value": 237.1, "unit": "%"},
      {"measurement": "Glands Penis, percent changes from the control group value", "setting": "10 mg/kg/day orally via gavage", "value": 122.9, "unit": "%"},
      {"measurement": "Levator Ani and Bulbocavernous, percent changes from the control group value", "setting": "10 mg/kg/day orally via gavage", "value": 139.7, "unit": "%"},
      {"measurement": "Prostate (Fixed), percent changes from the control group value", "setting": "10 mg/kg/day orally via gavage", "value": 234.0, "unit": "%"},
      {"measurement": "Prostate, percent changes from the control group value", "setting": "10 mg/kg/day orally via gavage", "value": 222.5, "unit": "%"},
      {"measurement": "Seminal Vesicles with Fluid, percent changes from the control group value", "setting": "10 mg/kg/day orally via gavage", "value": 194.4, "unit": "%"}
    ]},
    {"smiles": "C[C@]12COC(=O)C[C@@H]1CC[C@@H]1[C@@H]2CC[C@@]2(C)[C@H]1CC[C@]2(C)O", "note": "[Oxandro, oxandrolone]", "values": [
      {"measurement": "Cowpers Gland, percent changes from the control group value", "setting": "1 mg/kg/day orally via gavage", "value": 137.1, "unit": "%"},
      {"measurement": "Glands Penis, percent changes from the control group value", "setting": "1 mg/kg/day orally via gavage", "value": 104.1, "unit": "%"},
      {"measurement": "Levator Ani and Bulbocavernous, percent changes from the control group value", "setting": "1 mg/kg/day orally via gavage", "value": 107.3, "unit": "%"},
      {"measurement": "Prostate (Fixed), percent changes from the control group value", "setting": "1 mg/kg/day orally via gavage", "value": 127.6, "unit": "%"},
      {"measurement": "Prostate, percent changes from the control group value", "setting": "1 mg/kg/day orally via gavage", "value": 135.3, "unit": "%"},
      {"measurement": "Seminal Vesicles with Fluid, percent changes from the control group value", "setting": "1 mg/kg/day orally via gavage", "value": 100.7, "unit": "%"},
      {"measurement": "Cowpers Gland, percent changes from the control group value", "setting": "3 mg/kg/day orally via gavage", "value": 159.7, "unit": "%"},
      {"measurement": "Glands Penis, percent changes from the control group value", "setting": "3 mg/kg/day orally via gavage", "value": 107.4, "unit": "%"},
      {"measurement": "Levator Ani and Bulbocavernous, percent changes from the control group value", "setting": "3 mg/kg/day orally via gavage", "value": 148.2, "unit": "%"},
      {"measurement": "Prostate (Fixed), percent changes from the control group value", "setting": "3 mg/kg/day orally via gavage", "value": 149.9, "unit": "%"},
      {"measurement": "Prostate, percent changes from the control group value", "setting": "3 mg/kg/day orally via gavage", "value": 139.4, "unit": "%"},
      {"measurement": "Seminal Vesicles with Fluid, percent changes from the control group value", "setting": "3 mg/kg/day orally via gavage", "value": 120.1, "unit": "%"},
      {"measurement": "Cowpers Gland, percent changes from the control group value", "setting": "10 mg/kg/day orally via gavage", "value": 206.5, "unit": "%"},
      {"measurement": "Glands Penis, percent changes from the control group value", "setting": "10 mg/kg/day orally via gavage", "value": 109.6, "unit": "%"},
      {"measurement": "Levator Ani and Bulbocavernous, percent changes from the control group value", "setting": "10 mg/kg/day orally via gavage", "value": 192.4, "unit": "%"},
      {"measurement": "Prostate (Fixed), percent changes from the control group value", "setting": "10 mg/kg/day orally via gavage", "value": 192.2, "unit": "%"},
      {"measurement": "Prostate, percent changes from the control group value", "setting": "10 mg/kg/day orally via gavage", "value": 166.3, "unit": "%"},
      {"measurement": "Seminal Vesicles with Fluid, percent changes from the control group value", "setting": "10 mg/kg/day orally via gavage", "value": 171.0, "unit": "%"}
    ]}
  ]
}
